According to patent publication US20230120564A1, “PYRIDO[3,4-D]PYRIMIDINE DERIVATIVE AND THERAPEUTIC PHARMACEUTIC COMPOSITION COMPRISING SAME” (KOREA INSTITUTE OF SCIENCE AND TECHNOLOGY, priority 2020, published 2023):

Columns and labels:
Assay in all cases: full kinase panel biochemical assay
EPHA7 = EPHA7 (Homo sapiens, UniProt Q15375); settings: single concentration of 1 μM; read-out: percent inhibition of EPHA7
Method: (§1) In order to measure the protein kinase inhibitory activity (% inhibition) of the compound of the present invention, biochemical assay was performed in the full kinase panel. As a test compound, Compound No. 4 was used. The percent inhibition of each kinase when treated with the test compound at a single concentration of 1 μM was measured, and the residual enzyme activity values (%) of the kinases were calculated. Kinases whose calculated residual enzyme activity values (%) was 30% or less (i.e., kinases inhibited by 70% or more) are as follows: ABL1, ABL2/ARG, ACK1, ARAF, BLK, BMX/ETK, BRAF, BRK, BTK, c-Kit, c-Src, CSK, DDR1, DDR2, EPHA1, EPHA2, EPHA3, EPHA4, EPHA5, EPHA6, EPHA7, EPHA8, EPHB1, EPHB2, EPHB3, EPHB4, ERBB2/HER2, ERBB4/HER4, FGFR1, FGFR2, FGFR3, FGR, FLT1/VEGFR1, FLT4/VEGFR3, FMS, FRK/PTK5, FYN, GCK/MAP4K2, HCK, HGK/MAP4K4, JAK1, JAK2, KDR/VEGFR2, KHS/MAP4K5, LCK, LYN, LYN B, MEKK1, MLK4, MYLK3, NEK5, P38a/MAPK14, P38b/MAPK11, PDGFRa, PDGFRb, PEAK1, RET, RIPK2, RIPK4, SIK2, SRPK1, TAOK3/JIK, TLK1, TNK1, TXK, TYK2, YES/YES1, YSK4/MAP3K19, and ZAK/MLTK.

c-Kit = c-Kit (Homo sapiens, UniProt P10721); settings: single concentration of 1 μM; read-out: percent inhibition of c-Kit
Method: as §1

YSK4/MAP3K19 = YSK4/MAP3K19 (Homo sapiens, UniProt Q56UN5); settings: single concentration of 1 μM; read-out: percent inhibition of YSK4/MAP3K19
Method: as §1

FGR = FGR (Homo sapiens, UniProt P09769); settings: single concentration of 1 μM; read-out: percent inhibition of FGR
Method: as §1

KDR/VEGFR2 = KDR/VEGFR2 (Homo sapiens, UniProt P35968); settings: single concentration of 1 μM; read-out: percent inhibition of KDR/VEGFR2
Sequence of KDR/VEGFR2 (P35968 20-1356): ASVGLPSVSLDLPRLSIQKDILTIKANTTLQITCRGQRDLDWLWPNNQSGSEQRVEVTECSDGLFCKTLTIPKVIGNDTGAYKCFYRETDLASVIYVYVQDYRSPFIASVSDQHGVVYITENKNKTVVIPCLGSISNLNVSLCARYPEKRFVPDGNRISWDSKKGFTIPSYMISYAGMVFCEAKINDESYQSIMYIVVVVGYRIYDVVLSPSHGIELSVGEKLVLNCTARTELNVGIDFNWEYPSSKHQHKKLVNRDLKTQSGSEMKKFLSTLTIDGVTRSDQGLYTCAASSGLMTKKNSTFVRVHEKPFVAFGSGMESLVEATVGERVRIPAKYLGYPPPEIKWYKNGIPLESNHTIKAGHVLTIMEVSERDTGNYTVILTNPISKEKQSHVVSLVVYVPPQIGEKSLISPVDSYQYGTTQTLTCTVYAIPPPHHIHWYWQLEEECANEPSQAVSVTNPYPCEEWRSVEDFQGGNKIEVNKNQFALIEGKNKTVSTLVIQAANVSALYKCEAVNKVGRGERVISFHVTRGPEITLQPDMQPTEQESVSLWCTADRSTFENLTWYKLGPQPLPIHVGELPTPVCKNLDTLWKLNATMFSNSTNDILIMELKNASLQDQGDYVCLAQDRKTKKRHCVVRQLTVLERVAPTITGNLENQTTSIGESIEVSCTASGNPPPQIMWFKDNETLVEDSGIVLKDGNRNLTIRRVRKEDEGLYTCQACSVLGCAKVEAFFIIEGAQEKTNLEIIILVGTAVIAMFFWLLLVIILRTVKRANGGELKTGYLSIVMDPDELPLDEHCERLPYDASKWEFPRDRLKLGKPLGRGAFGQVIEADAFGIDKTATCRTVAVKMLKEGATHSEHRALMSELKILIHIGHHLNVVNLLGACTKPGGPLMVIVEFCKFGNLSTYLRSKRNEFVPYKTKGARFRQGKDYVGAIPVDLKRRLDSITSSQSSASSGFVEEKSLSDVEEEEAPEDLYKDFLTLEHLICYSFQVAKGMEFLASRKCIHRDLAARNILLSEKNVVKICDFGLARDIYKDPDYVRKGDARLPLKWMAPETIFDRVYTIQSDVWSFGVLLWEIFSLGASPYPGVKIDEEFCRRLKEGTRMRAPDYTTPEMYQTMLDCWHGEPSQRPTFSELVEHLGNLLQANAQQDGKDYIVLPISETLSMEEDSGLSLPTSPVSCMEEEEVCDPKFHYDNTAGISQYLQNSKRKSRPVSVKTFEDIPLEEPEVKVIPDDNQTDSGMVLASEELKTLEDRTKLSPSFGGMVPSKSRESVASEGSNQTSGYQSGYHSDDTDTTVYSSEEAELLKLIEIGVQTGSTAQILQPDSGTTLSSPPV
Method: as §1

RIPK2 = RIPK2 (Homo sapiens, UniProt O43353); settings: single concentration of 1 μM; read-out: percent inhibition of RIPK2
Method: as §1

ERBB4/HER4 = ERBB4/HER4 (Homo sapiens, UniProt Q15303); settings: single concentration of 1 μM; read-out: percent inhibition of ERBB4/HER4
Method: as §1

MEKK1 = MEKK1 (Homo sapiens, UniProt Q13233); settings: single concentration of 1 μM; read-out: percent inhibition of MEKK1
Method: as §1

ZAK/MLTK = ZAK/MLTK (Homo sapiens, UniProt Q9NYL2); settings: single concentration of 1 μM; read-out: percent inhibition of ZAK/MLTK
Method: as §1

FYN = FYN (Homo sapiens, UniProt P06241); settings: single concentration of 1 μM; read-out: percent inhibition of FYN
Method: as §1

TXK = TXK (Homo sapiens, UniProt P42681); settings: single concentration of 1 μM; read-out: percent inhibition of TXK
Method: as §1

BLK = BLK (Homo sapiens, UniProt P51451); settings: single concentration of 1 μM; read-out: percent inhibition of BLK
Sequence of BLK (P51451 whole entry): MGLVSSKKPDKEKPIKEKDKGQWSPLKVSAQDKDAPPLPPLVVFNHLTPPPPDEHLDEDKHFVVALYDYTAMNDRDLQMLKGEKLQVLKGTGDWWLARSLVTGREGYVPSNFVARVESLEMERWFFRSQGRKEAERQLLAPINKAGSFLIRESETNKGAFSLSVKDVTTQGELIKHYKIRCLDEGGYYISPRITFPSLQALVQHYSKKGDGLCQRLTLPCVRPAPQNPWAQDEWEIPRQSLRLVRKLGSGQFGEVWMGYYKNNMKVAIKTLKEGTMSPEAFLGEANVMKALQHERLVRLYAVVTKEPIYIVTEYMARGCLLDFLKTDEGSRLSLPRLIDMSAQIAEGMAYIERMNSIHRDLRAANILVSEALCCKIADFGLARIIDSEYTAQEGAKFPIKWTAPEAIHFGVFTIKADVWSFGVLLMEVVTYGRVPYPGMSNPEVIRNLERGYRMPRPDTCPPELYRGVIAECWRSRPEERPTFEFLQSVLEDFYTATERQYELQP
Method: as §1

EPHB4 = EPHB4 (Homo sapiens, UniProt P54760); settings: single concentration of 1 μM; read-out: percent inhibition of EPHB4
Sequence of EPHB4 (P54760 16-987): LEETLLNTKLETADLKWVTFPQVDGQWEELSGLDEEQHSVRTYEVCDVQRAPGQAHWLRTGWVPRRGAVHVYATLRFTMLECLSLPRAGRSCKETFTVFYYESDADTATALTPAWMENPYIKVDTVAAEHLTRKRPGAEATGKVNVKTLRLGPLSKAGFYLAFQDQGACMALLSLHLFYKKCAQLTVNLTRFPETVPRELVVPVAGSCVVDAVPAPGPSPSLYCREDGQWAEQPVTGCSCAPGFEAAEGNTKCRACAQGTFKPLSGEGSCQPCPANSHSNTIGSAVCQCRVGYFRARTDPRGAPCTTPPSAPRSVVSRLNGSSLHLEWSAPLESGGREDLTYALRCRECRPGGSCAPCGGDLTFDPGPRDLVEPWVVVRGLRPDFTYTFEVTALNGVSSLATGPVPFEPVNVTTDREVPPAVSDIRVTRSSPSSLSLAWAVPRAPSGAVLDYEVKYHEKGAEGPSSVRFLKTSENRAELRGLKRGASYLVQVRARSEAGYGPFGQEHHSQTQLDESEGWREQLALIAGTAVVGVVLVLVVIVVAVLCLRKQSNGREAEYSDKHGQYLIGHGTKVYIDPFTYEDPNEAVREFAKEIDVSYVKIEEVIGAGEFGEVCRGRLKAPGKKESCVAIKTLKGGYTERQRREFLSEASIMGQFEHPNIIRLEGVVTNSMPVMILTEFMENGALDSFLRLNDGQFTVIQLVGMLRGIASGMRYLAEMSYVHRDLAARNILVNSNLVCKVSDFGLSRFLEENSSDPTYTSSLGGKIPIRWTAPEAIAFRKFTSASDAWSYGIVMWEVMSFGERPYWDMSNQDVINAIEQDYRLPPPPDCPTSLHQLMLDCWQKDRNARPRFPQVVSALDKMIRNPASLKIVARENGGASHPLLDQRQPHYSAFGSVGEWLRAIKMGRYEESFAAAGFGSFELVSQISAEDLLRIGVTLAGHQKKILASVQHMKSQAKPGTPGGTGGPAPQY
Method: as §1

EPHB2 = EPHB2 (Homo sapiens, UniProt P29323); settings: single concentration of 1 μM; read-out: percent inhibition of EPHB2
Method: as §1

BMX/ETK = BMX/ETK (Homo sapiens, UniProt P51813); settings: single concentration of 1 μM; read-out: percent inhibition of BMX/ETK
Method: as §1

JAK2 = JAK2 (Homo sapiens, UniProt O60674); settings: single concentration of 1 μM; read-out: percent inhibition of JAK2
Sequence of JAK2 (O60674 whole entry): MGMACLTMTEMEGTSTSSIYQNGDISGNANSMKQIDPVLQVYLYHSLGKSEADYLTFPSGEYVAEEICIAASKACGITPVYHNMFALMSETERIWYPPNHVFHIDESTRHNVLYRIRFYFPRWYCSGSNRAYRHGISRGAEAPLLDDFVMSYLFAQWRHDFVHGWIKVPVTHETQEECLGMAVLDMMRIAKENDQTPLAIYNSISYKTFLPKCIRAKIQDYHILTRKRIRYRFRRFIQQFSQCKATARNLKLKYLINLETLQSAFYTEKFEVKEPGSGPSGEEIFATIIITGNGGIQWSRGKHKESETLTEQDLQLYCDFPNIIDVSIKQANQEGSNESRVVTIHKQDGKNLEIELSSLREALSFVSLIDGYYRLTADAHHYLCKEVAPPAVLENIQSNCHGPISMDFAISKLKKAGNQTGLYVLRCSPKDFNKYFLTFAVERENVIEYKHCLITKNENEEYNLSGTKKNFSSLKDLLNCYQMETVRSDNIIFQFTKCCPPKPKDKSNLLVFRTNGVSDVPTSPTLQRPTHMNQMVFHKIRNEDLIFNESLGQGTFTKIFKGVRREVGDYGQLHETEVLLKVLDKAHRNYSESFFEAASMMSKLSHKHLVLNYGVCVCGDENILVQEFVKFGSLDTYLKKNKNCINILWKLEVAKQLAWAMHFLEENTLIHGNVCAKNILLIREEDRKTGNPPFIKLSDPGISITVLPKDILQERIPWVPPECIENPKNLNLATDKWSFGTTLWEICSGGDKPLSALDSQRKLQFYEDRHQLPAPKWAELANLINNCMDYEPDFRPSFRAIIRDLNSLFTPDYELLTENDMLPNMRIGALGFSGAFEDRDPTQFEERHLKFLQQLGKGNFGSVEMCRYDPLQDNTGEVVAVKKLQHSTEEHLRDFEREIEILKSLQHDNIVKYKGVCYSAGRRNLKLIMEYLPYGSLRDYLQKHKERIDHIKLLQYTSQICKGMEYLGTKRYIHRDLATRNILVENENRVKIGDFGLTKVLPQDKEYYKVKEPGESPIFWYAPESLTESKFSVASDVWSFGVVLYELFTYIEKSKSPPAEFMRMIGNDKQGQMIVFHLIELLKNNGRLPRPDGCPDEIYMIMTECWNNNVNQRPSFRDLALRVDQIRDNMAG
Method: as §1

YES/YES1 = YES/YES1 (Homo sapiens, UniProt P07947); settings: single concentration of 1 μM; read-out: percent inhibition of YES/YES1
Method: as §1

SIK2 = SIK2 (Homo sapiens, UniProt Q9H0K1); settings: single concentration of 1 μM; read-out: percent inhibition of SIK2
Method: as §1

EPHA6 = EPHA6 (Homo sapiens, UniProt Q9UF33); settings: single concentration of 1 μM; read-out: percent inhibition of EPHA6
Method: as §1

EPHA8 = EPHA8 (Homo sapiens, UniProt P29322); settings: single concentration of 1 μM; read-out: percent inhibition of EPHA8
Method: as §1

TAOK3/JIK = TAOK3/JIK (Homo sapiens, UniProt Q9H2K8); settings: single concentration of 1 μM; read-out: percent inhibition of TAOK3/JIK
Method: as §1

EPHB3 = EPHB3 (Homo sapiens, UniProt P54753); settings: single concentration of 1 μM; read-out: percent inhibition of EPHB3
Method: as §1

PDGFRb = PDGFRb (Homo sapiens, UniProt P09619); settings: single concentration of 1 μM; read-out: percent inhibition of PDGFRb
Sequence of PDGFRb (P09619 33-1106): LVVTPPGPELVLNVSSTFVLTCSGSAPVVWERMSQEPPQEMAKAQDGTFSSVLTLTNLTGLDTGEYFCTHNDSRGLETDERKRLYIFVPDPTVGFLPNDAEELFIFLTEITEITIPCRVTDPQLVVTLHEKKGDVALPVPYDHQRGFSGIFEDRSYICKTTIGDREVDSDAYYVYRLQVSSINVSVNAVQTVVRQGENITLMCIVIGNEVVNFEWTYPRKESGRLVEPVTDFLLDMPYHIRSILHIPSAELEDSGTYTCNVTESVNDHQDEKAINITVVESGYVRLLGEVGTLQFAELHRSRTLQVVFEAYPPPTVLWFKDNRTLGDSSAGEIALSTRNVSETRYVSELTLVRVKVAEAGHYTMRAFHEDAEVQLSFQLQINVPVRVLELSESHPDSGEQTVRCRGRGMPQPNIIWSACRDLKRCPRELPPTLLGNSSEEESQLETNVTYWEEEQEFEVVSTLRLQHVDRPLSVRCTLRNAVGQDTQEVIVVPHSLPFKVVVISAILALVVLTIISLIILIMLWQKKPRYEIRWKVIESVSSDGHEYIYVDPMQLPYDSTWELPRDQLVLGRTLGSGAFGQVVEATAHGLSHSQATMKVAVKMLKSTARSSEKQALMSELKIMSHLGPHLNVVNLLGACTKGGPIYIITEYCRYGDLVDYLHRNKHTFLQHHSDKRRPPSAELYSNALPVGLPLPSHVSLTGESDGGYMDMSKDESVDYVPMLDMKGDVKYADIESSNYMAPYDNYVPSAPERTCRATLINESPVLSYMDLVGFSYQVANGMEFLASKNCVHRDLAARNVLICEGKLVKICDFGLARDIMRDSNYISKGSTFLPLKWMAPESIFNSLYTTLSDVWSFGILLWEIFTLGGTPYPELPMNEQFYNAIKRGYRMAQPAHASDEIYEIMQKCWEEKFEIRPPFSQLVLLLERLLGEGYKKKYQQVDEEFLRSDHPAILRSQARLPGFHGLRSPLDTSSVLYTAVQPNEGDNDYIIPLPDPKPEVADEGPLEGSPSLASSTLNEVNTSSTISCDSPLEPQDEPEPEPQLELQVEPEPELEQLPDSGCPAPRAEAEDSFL
Method: as §1

HGK/MAP4K4 = HGK/MAP4K4 (Homo sapiens, UniProt O95819); settings: single concentration of 1 μM; read-out: percent inhibition of HGK/MAP4K4
Method: as §1

Measured: inhibition at 1 µM

Cc1ccc(Nc2ncc3cc(-c4cc(NC(=O)c5cccc(C(F)(F)F)c5)ccc4C)ncc3n2)cn1 [Compound No. 4, N-(4-methyl-3-(2-((6-methylpyridin-3-yl)amino)pyrido[3,4-d]pyrimidin-6-yl)phenyl)-3-(trifluoromethyl)benzamide]
≥ 70%: all assays above
